Assay results as given in patent US20120022121A1, “INDOLES, DERIVATIVES AND ANALOGS THEREOF AND USES THEREFOR” (priority 2007, published 2012).

How the values were obtained:
[1] = tested on: DU-145; experiment: Cell viability SRB assay, 96 h; format: cell-based; details: Homo sapiens, DU-145, 96 h
Protocol: (§1) Cell viability (LNCaP, PC-3 prostate, DU145, PPC-1, and TSU-Pr1 prostate cancer cell lines, HT-29 colon cancer cell line, and MCF-7 breast cancer cell line) was quantitated using the sulforhodamine B (SRB) assay after 96 h coincubation with different concentrations of compound in 96-well plates. Cell viability of leukemia cells (K562 and doxorubicin-resistant K562/Dox) was quantitated by MTT assay after 96 h coincubation with different concentrations of compound in 96-well plates. Drug-induced apoptosis was determined by anti-histone ELISA assay and DNA laddering. Cell cycle progression was assessed by propidium iodide staining and fluorescence-activated cell sorting (FACS) analysis. In vitro tubulin polymerization assay was determined by CytoDYNAMIX ScreenTM3 (CDS-03) kits according to the manufacturer's instructions. Anti-apoptosis protein (Bcl-2 and Bcl-xl) and pro-apoptosis protein (Bax) were examined in LNCaP and PC-3 after 24 h incubation with different concentrations of compound 13 by Western blot assay. In vivo PC-3 xenograft studies were conducted by i.v. dosing of 50 mg/kg, 100 mg/kg and 150 mg/kg for 2 weeks.
(§2) Cells were plated in 96-well plates at a density of 800-5,000 cells/well, depending on the cell line, in their required growth media containing 10% fetal bovine serum. Preliminary studies were performed with each cell line using a variety of cell densities and incubation times to determine appropriate seeding densities. The compound of interest was dissolved in DMSO, diluted in cell culture medium (final DMSO concentration was less than 0.5% v/v), and added to quadruplicate wells at final concentrations ranging from 0 to 100 μM. Control wells to which only drug-free vehicle was added were included as negative controls.
(§3) Cells were incubated for 96 hour at 37° C. in a humidified atmosphere containing 5% carbon dioxide.
(§4) Cells were stained with SRB solution. […] WinNonlin was provided by a Pharsight Academic License to The Ohio State University.

[2] = tested on: PPC-1; experiment: Cell viability SRB assay, 96 h; format: cell-based; details: Homo sapiens, PPC-1, 96 h
Protocol: as §1, §2, §3, §4

[3] = tested on: PC-3; experiment: Cell viability SRB assay, 96 h; format: cell-based; details: Homo sapiens, PC-3, 96 h
Protocol: as §1, §2, §3, §4

[4] = tested on: LNCaP; experiment: Cell viability SRB assay, 96 h; format: cell-based; details: Homo sapiens
Protocol: as §1, §2, §3, §4

[5] = tested on: TSU; experiment: Cell viability SRB assay, 96 h; format: cell-based; details: Homo sapiens, TSU (TSU-Pr1)
Protocol: as §1, §2, §3, §4

[6] = tested on: CV-1; experiment: Cell viability SRB assay, 96 h; format: cell-based; details: Cercopithecidae, CV-1 fibroblast cell line
Protocol: as §2, §3

[7] = tested on: LNCaP; experiment: Cytotoxicity assay (SRB, 96 h); format: cell-based; details: Homo sapiens
[8] = tested on: PC-3; experiment: Cytotoxicity assay (SRB, 96 h); format: cell-based; details: Homo sapiens, PC-3, 96 h
[9] = tested on: PPC-1; experiment: Cytotoxicity assay (SRB, 96 h); format: cell-based; details: Homo sapiens, PPC-1, 96 h
[10] = tested on: melanoma and prostate cancer cell lines; experiment: Cytotoxicity assay (SRB), summary over the cell lines of Table 3; format: cell-based; details: Homo sapiens
[11] = tested on: WM164; experiment: Cytotoxicity assay (SRB, 48 h); format: cell-based, human; details: WM164 melanoma
[12] = tested on: A375; experiment: Cytotoxicity assay (SRB, 48 h); format: cell-based, human
[13] = tested on: Du 145; experiment: Cytotoxicity assay (SRB, 96 h); format: cell-based; details: Homo sapiens; Du 145, 96 h
[14] = Homo sapiens, A-375, 48 h, A375 melanoma
[15] = Homo sapiens, A-375, A375 melanoma

Row | SMILES | IC50 [1] [µM] | IC50 [3] [µM] | IC50 [4] [µM] | melting point [°C] | IC50 [2] [µM] | IC50 [5] [µM] | IC50 [6] [µM] | IC50 [7] [µM] | IC50 [8] [µM] | IC50 [9] [µM] | IC50 [10] [µM] | IC50 [11] [µM] | IC50 ([12]; A375 melanoma) [µM] | IC50 [13] [µM] | IC50 ([11]; Homo sapiens, WM164, 48 h) [µM] | IC50 [12, 14] [µM] | IC50 ([11]; Homo sapiens) [µM] | IC50 [12, 15] [µM]
1 | O=S(=O)(c1ccccc1)n1c(B(O)O)cc2ccccc21 [Compound 7, 1-(phenylsulfonyl)-1H-indol-2-yl-boronic acid, reference compound] | 72 ± 3.4 | 73.9 ± 7.1 | 23.1 ± 4 |  | 80.8 ± 1.2 | 48.2 ± 3.4 | > 100 |  |  |  |  |  |  |  |  |  |  | 
2 | COc1cc(C(=O)c2nc3ccccc3[nH]2)cc(OC)c1OC [Compound 118, (1H-benzo[d]imidazol-2-yl)(3,4,5-trimethoxyphenyl)methanone] |  |  |  | 191 to 193 |  |  |  | > 10 | > 10 | > 10 | > 10 |  |  | > 10 | > 10 | > 10 |  | 
3 | O=S(=O)(c1ccccc1)n1cc(B(O)O)c2ccccc21 [Compound 129, reference compound] | 55.1 ± 2.5 | 59.9 ± 1.8 | 18.3 ± 1.4 |  | 41.1 ± 1.8 | 39.3 ± 1.6 | > 100 |  |  |  |  |  |  |  |  |  |  | 
4 | COc1ccc2cc(C(=O)c3cc(OC)c(OC)c(OC)c3)[nH]c2c1 [Compound 114, (6-Methoxy-1H-indol-2-yl)(3,4,5-trimethoxyphenyl)methanone] |  |  |  | 167 to 169 |  |  |  | > 10 | > 10 | > 10 | > 10 |  |  | > 10 |  |  | > 10 | > 10
5 | COc1cc(C(=O)c2cc3ccc(F)cc3n2C)cc(OC)c1OC [Compound 121, (6-Fluoro-1-methyl-1H-indol-2-yl)(3,4,5-trimethoxyphenyl)methanone] |  |  |  |  |  |  |  | 1.05 | > 10 | 8.3 | 1 to 10 |  |  | > 10 |  |  | 7.5 | 5.87
6 | COc1cc(C(=O)c2nc3ccccc3o2)cc(OC)c1OC [Compound 123b, Benzo[d]oxazol-2-yl(3,4,5-trimethoxyphenyl)methanone] |  |  |  | 89 to 91 |  |  |  | > 10 | > 10 | > 10 | > 10 |  |  | > 10 | > 10 | > 10 |  | 
7 | COc1ccc2[nH]c(C(=O)c3cc(OC)c(OC)c(OC)c3)cc2c1 [Compound 148, (5-Methoxy-1H-indol-2-yl)(3,4,5-trimethoxyphenyl)methanone] |  |  |  |  |  |  |  | 0.05 | 0.04 | 0.05 | 0.05 |  |  | 0.08 |  |  | 0.04 | 0.03
8 | COc1cc(C(=O)c2cc3ccc(F)cc3[nH]2)cc(OC)c1OC [Compound 113, (6-Fluoro-1H-indol-2-yl)(3,4,5-trimethoxyphenyl)methanone] |  |  |  |  |  |  |  | > 10 | > 10 | > 10 | > 10 |  |  | > 10 | > 10 | > 10 |  | 

Continued, in another order:

Row | IC50 [1] [µM] | IC50 [3] [µM] | IC50 [4] [µM] | melting point [°C] | SMILES | IC50 [2] [µM] | IC50 [5] [µM] | IC50 [6] [µM] | IC50 [7] [µM] | IC50 [8] [µM] | IC50 [9] [µM] | IC50 [10] [µM] | IC50 [11] [µM] | IC50 ([12]; A375 melanoma) [µM] | IC50 [13] [µM] | IC50 ([11]; Homo sapiens, WM164, 48 h) [µM] | IC50 [12, 14] [µM] | IC50 ([11]; Homo sapiens) [µM] | IC50 [12, 15] [µM]
9 | 63.9 ± 1.9 | 69.3 ± 2.1 | 29.6 ± 2.2 |  | O=S(=O)(c1ccccc1)n1c(Br)cc2ccccc21 [Compound 3, 2-bromo-1-(benzenesulfonyl)indole] | 52.1 ± 1.1 | 44.9 ± 2 | > 100 |  |  |  |  |  |  |  |  |  |  | 
10 |  |  |  | 252 to 254 | COc1cc(C(=O)c2cc3cc(Cl)ccc3[nH]2)cc(OC)c1OC [Compound 115, (5-Chloro-1H-indol-2-yl)(3,4,5-trimethoxyphenyl)methanone] |  |  |  | > 10 | > 10 | > 10 | 1 to 10 | 2.16 | 1.47 | > 10 |  |  |  | 
11 | > 100 | > 100 | > 100 | 81 to 83 | O=S(=O)(c1ccccc1)n1c(-c2cccc(C(O)c3cc4ccccc4n3S(=O)(=O)c3ccccc3)c2)cc2ccccc21 (stereo not shown) [Compound 8, (1-benzenesulfonyl-1H-indol-2-yl)-[3-(1-benzenesulfonyl-1H-indol-2-yl)phenyl]methanol] | 30 | > 100 | > 100 |  |  |  |  |  |  |  |  |  |  | 
12 |  |  |  | 207 to 209 | COc1cc(C(=O)c2cc3ccc(Cl)cc3[nH]2)cc(OC)c1OC [Compound 112, (6-Chloro-1H-indol-2-yl)(3,4,5-trimethoxyphenyl)methanone] |  |  |  | > 10 | > 10 | > 10 | > 10 |  |  | > 10 | > 10 | > 10 |  | 
13 | 19.7 ± 1.3 | 23.2 ± 1.4 | 17.7 ± 1.2 | 126 to 138 | O=Cc1cccc(-c2cc3ccccc3n2S(=O)(=O)c2ccccc2)c1 [Compound 5] | 13.9 ± 0.2 | 11.5 ± 0.1 | > 100 |  |  |  |  |  |  |  |  |  |  | 
14 |  |  |  | 144 to 146 | COc1cc(C(=O)c2nc3ccccc3s2)cc(OC)c1OC [Compound 123a, Benzo[d]thiazol-2-yl(3,4,5-trimethoxyphenyl)methanone] |  |  |  | > 10 | > 10 | > 10 | > 10 |  |  | > 10 | > 10 | > 10 |  | 
15 | 39.7 ± 2.6 | 39.4 ± 1.7 | 5.8 ± 0.5 |  | c1ccc2c(Cc3c[nH]c4ccccc34)c[nH]c2c1 [Compound 128, di(1H-indol-3-yl)methane, reference compound] | 31.8 ± 1.1 | 45.7 ± 1.1 | > 100 |  |  |  |  |  |  |  |  |  |  | 
16 |  |  |  | 50 to 52 | COc1cc(C(O)(c2nc3ccccc3s2)c2nc3ccccc3s2)cc(OC)c1OC [Compound 127, Bis(benzo[d]thiazol-2-yl)(3,4,5-trimethoxyphenyl)methanol] |  |  |  | > 10 | > 10 | > 10 | > 10 |  |  | > 10 | > 10 | > 10 |  | 
